Data as given in PubChem BioAssay (NCI).
Where “and” joins values, the source holds several entries; their conditions need not be identical. Identical values can stand only once.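 Dose response: 5 concentrations. Exposure: 48 h. Format: 96-well plates. Endpoint: linear interpolation; highest concentration if not reached. GI50 is the concentration that inhibits growth by half. TGI: concentration producing complete growth inhibition.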

How the values were obtained:
Assay in all cases: growth of human tumour cells (NCI), 48 h
SK-MEL-5 melanoma = tested on: SK-MEL-5 melanoma
HCT-15 colon = tested on: HCT-15 colon
NCI-H23 lung = tested on: NCI-H23 lung
NCI-H226 lung = tested on: NCI-H226 lung
OVCAR-5 ovarian = tested on: OVCAR-5 ovarian
786-0 renal = tested on: 786-0 renal
HCT-116 colon = tested on: HCT-116 colon
SNB-75 CNS = tested on: SNB-75 CNS
PC-3 prostate = tested on: PC-3 prostate
DU-145 prostate = tested on: DU-145 prostate

Compound | TGI (SK-MEL-5 melanoma) | TGI (HCT-15 colon) | TGI (NCI-H23 lung) | TGI (NCI-H226 lung) | TGI (OVCAR-5 ovarian) | TGI (786-0 renal) | TGI (HCT-116 colon) | TGI (SNB-75 CNS) | GI50 (SK-MEL-5 melanoma) | GI50 (PC-3 prostate) | TGI (PC-3 prostate) | GI50 (HCT-15 colon) | GI50 (NCI-H23 lung) | GI50 (DU-145 prostate) | TGI (DU-145 prostate) | GI50 (OVCAR-5 ovarian) | GI50 (786-0 renal) | GI50 (HCT-116 colon) | GI50 (SNB-75 CNS) | GI50 (NCI-H226 lung)
CC1OC(n2cc(F)c(=O)[nH]c2=O)C=CC1O (stereo unspecified) | > 100 µM | > 100 µM | > 100 µM | > 100 µM | > 100 µM | > 100 µM | > 100 µM | > 100 µM | – | – | – | – | – | – | – | – | – | – | – | –
CCN1CCN(c2ccc(Nc3cc(N(C)C(=O)Nc4c(Cl)c(OC)cc(OC)c4Cl)ncn3)cc2)CC1 | 8.47 µM | 8.94 µM | 44.6 µM | – | 14.7 µM | 4.27 µM | 5.2 µM | 22.2 µM | 4.27 µM | 3.52 µM | 19.2 µM | 1.87 µM | 4.35 µM | 2.33 µM | 9.75 µM | 3.7 µM | 1.88 µM | 1.73 µM | 5.23 µM | –
Cc1ccc(S(=O)(=O)NCC2CCCCC2=O)cc1 (stereo unspecified) | > 100 µM | > 100 µM | > 100 µM | > 100 µM | > 100 µM | > 100 µM | > 100 µM | 93.1 µM | – | – | – | – | – | – | – | – | – | – | – | –
Cc1c2cccnc2c(C)c2c1c1cc(CO)ccc1n2C | 5.12 µM | 15.4 µM | 16 µM | 1.33 µM | 8.78 µM | 12.7 µM | 3.26 µM | – | 1.75 µM | 2.67 µM | 33 µM | 2 µM | 2.31 µM | 3.09 µM | 11.9 µM | 0.618 µM | 2.17 µM | 0.42 µM | – | 0.264 µM
CCOP(=O)(Cc1ccc(CP(=O)(OCC)OCC)n1C)OCC | > 100 µM | > 100 µM | > 100 µM | – | > 100 µM | > 100 µM | – | > 100 µM | – | – | – | – | – | – | – | – | – | – | – | –
CCOC(=O)Oc1c(OC)cc(C(=O)NC2CCc3cc(OC)c(OC)c(OC)c3-c3ccc(SC)c(=O)cc32)cc1OC (stereo unspecified) | 0.916 µM | 13.6 µM | 0.266 µM and 0.0388 µM | 0.0974 µM and 0.0242 µM | > 70 µM | 13 µM | 0.311 µM and 0.0975 µM | < 0.007 µM | – | – | – | 0.132 µM | < 0.007 µM | – | – | > 70 µM | 0.023 µM | < 0.007 µM | < 0.007 µM | 0.00709 µM
CC(C)(C)OC(=O)NCC(=O)OCc1ccccc1 | – | > 100 µM | > 100 µM | – | > 100 µM | > 100 µM | > 100 µM | > 100 µM | – | – | – | – | – | – | – | – | – | – | – | –
C/C1=C\CC[C@@]2(C)O[C@@H]2[C@H]2OC(=O)[C@@H](CN(C)C)[C@@H]2CC1 | 29.7 µM | 34.3 µM | 40 µM | 40.6 µM | 37.1 µM | 24 µM | 20.4 µM | – | 8.14 µM | 14.1 µM | 33.7 µM | 15.9 µM | 19.2 µM | 4.75 µM | 28.1 µM | 18.6 µM | 7.61 µM | 4.97 µM | – | 20.4 µM
O=[n+]1c2c(n([O-])c3ccccc31)CCCCCCCCCC2 | – | > 100 µM | > 100 µM | 61.8 µM | – | > 100 µM | > 100 µM | > 100 µM | – | – | – | – | – | – | – | – | – | – | – | –
CC(=O)O.CC(=O)O.CC(=O)O.CC(=O)O.CC(=O)O.CC(=O)O.O.[Ti].[Ti] | > 100 µM | > 100 µM | – | > 100 µM | > 100 µM | > 100 µM | > 100 µM | > 100 µM | > 100 µM | – | – | > 100 µM | – | – | – | > 100 µM | > 100 µM | > 100 µM | 56 µM | > 100 µM
CC1=Nc2ccccc2C1C(Cc1ccccc1N)c1c(C)[nH]c2ccccc12 (stereo unspecified) | 27.8 µM | 51 µM | 33.6 µM | 32.9 µM | 31.6 µM | 28.6 µM | 30.6 µM | 34.8 µM | – | – | – | – | – | – | – | – | – | – | – | –
O=C1c2ccccc2C2(Br)C(=O)c3ccccc3C12 (stereo unspecified) | > 100 µM | > 100 µM | > 100 µM | – | > 100 µM | > 100 µM | – | > 100 µM | – | – | – | – | – | – | – | – | – | – | – | –
O=[N+]([O-])c1nccn1CC(O)c1ccc(F)cc1 (stereo unspecified) | > 100 µM | > 100 µM | > 100 µM | > 100 µM | > 100 µM | > 100 µM | – | > 100 µM | – | – | – | – | – | – | – | – | – | – | – | –
O=C(O)CNc1cc(-c2ccccc2)nc(NCC(=O)O)n1 | > 100 µM | > 100 µM | > 100 µM | > 100 µM | > 100 µM | > 100 µM | > 100 µM | > 100 µM | – | – | – | – | – | – | – | – | – | – | – | –
CNC(=S)NC1CCCCC1NC(=S)NC (stereo unspecified) | > 100 µM | > 100 µM | > 100 µM | > 100 µM | > 100 µM | > 100 µM | > 100 µM | > 100 µM | – | – | – | – | – | – | – | – | – | – | – | –
COC(=O)C(C(=O)C(=O)Nc1cccc(OC)c1)c1cnc2ccccc2n1 (stereo unspecified) | > 100 µM | > 100 µM | > 100 µM | > 100 µM | > 100 µM | > 100 µM | > 100 µM | > 100 µM | – | – | – | – | – | – | – | – | – | – | – | –
Ic1ccc(Nc2nc3nonc3nc2Nc2ccc(I)cc2)cc1 | 0.352 µM | > 100 µM | – | – | > 100 µM | > 100 µM | > 100 µM | > 100 µM | 0.137 µM | 0.186 µM | > 100 µM | 0.144 µM | – | 0.365 µM | > 100 µM | 0.387 µM | 0.332 µM | 0.135 µM | 0.227 µM | –
O=C(Nc1nc2ncn(CCI)c2c(=O)[nH]1)c1ccccc1 | > 100 µM | > 100 µM | > 100 µM | 77.4 µM | > 100 µM | > 100 µM | > 100 µM | 46.4 µM | – | – | – | – | – | – | – | – | – | – | – | –
O=S(O)CCCCSSCC(O)C(O)CSSCCCCS(=O)O (stereo unspecified) | 18.1 µM and 26 µM | > 100 µM | 42.3 µM and > 100 µM | – | > 100 µM | > 100 µM | – | > 100 µM and 88.7 µM | 4.97 µM and 11.2 µM | – | – | – | – | – | – | – | – | – | – | –
CCC[CH2][Sn]([CH2]CCC)([CH2]CCC)[O]C(=O)CC | 0.27 µM | 0.409 µM | 0.615 µM | – | 0.387 µM | 0.295 µM | 0.294 µM | 0.349 µM | 0.139 µM | 0.189 µM | 0.426 µM | 0.156 µM | 0.149 µM | 0.136 µM | 0.271 µM | 0.154 µM | 0.151 µM | 0.138 µM | 0.144 µM | –
